Experiments:
[1] = test system: Eimeria tenella; test: Anticoccidial activity which controlled infection by Eimeria tenella in Leghorn cockerels; assay type: functional; conditions: read-out: MEC
[2] = test system: Eimeria acervulina; test: Anticoccidial activity which controlled infection by Eimeria acervulina in Leghorn cockerels; conditions: read-out: MEC
[3] = Plasma half-life of the compound.; assay type: ADME
[4] = Apparent pKa value was measured in 2:1 DMF/H2O.; assay type: physicochemical
[5] = Apparent pKa value was measured in 1:1 DMF/H2O.; assay type: physicochemical
[6] = test system: Eimeria necatrix; test: Anticoccidial activity which controlled infection by Eimeria necatrix in Leghorn cockerels; MEC means minimum effective concentration in parts per million.; assay type: functional; conditions: read-out: MEC

| Structure (SMILES) | minimal effective concentration [1] | further results |
| --- | --- | --- |
| O=C(c1ccc(Cl)cc1)c1ccc(-n2ncc(=O)[nH]c2=O)cc1 | 30 µg/mL | – |
| O=C(c1ccccc1)c1cccc(-n2ncc(=O)[nH]c2=O)c1 | > 250 µg/mL | – |
| CSc1ccc(C(=O)c2ccc(-n3ncc(=O)[nH]c3=O)cc2Cl)cc1 | – | minimal effective concentration [2]: > 30 µg/mL |
| Cc1cc(Br)ccc1C(=O)c1ccc(-n2ncc(=O)[nH]c2=O)cc1Cl | 8 µg/mL | – |
| O=C(c1ccc(Cl)cc1)c1ccc(-n2ncc(=O)[nH]c2=O)cc1Cl | 2 µg/mL | half-life [3]: 20 h; pH1/2 [4]: 7.16 |
| O=C(c1ccccc1)c1ccc(-n2ncc(=O)[nH]c2=O)cc1 | 60 µg/mL | pH1/2 [4]: 7.79 |
| Cc1cc(-n2ncc(=O)[nH]c2=O)ccc1C(=O)c1ccccc1 | 8 µg/mL | pH1/2 [5]: 7.02 |
| Cc1cc(-n2ncc(=O)[nH]c2=O)cc(C)c1C(=O)c1ccc(Cl)cc1 | 15 µg/mL | – |
| Cc1cc(-n2ncc(=O)[nH]c2=O)cc(C)c1C(O)c1ccc(Cl)cc1 (stereo not given) | 30 µg/mL | – |
| Cc1cc(C)c(C(=O)c2ccc(-n3ncc(=O)[nH]c3=O)cc2)c(C)c1 | > 250 µg/mL | pH1/2 [4]: 7.16 |
| Cc1cc(-n2ncc(=O)[nH]c2=O)ccc1C(=O)c1ccc(Cl)cc1Cl | 4 µg/mL | half-life [3]: 45 h |
| Cc1cc(-n2ncc(=O)[nH]c2=O)ccc1C(O)c1ccccc1 (stereo not given) | 30 µg/mL | pH1/2 [5]: 7.37 |
| O=c1cnn(-c2ccc(-c3ccc4oc5ccc(Cl)cc5c(=O)c4c3)cc2)c(=O)[nH]1 | > 250 µg/mL | – |
| Cc1cc(-n2ncc(=O)[nH]c2=O)ccc1C(=O)c1ccc(C#N)cc1 | 125 µg/mL | pH1/2 [4]: 7.08 |
| Cc1cc(-n2ncc(=O)[nH]c2=O)ccc1C(=O)c1ccc(Cl)cc1 | 8 µg/mL | half-life [3]: 13 h; pH1/2 [4]: 7.6 |
| COc1ccc(C(=O)c2ccc(-n3ncc(=O)[nH]c3=O)cc2)cc1 | 125 µg/mL | – |

| Structure (SMILES) | minimal effective concentration [1] | further results |
| --- | --- | --- |
| Cc1cc(-n2ncc(=O)[nH]c2=O)ccc1C(=O)c1ccccc1Cl | 60 µg/mL | pH1/2 [4]: 7.08 |
| O=C(c1ccc(-n2ncc(=O)[nH]c2=O)cc1)c1cccs1 | > 250 µg/mL | – |
| O=C(c1ccc(Cl)cc1Cl)c1ccc(-n2ncc(=O)[nH]c2=O)cc1Cl | 4 µg/mL | – |
| Cc1cc(Cl)ccc1C(=O)c1ccc(-n2ncc(=O)[nH]c2=O)cc1C | 15 µg/mL | – |
| Cc1ccc(C(=O)c2ccc(-n3ncc(=O)[nH]c3=O)cc2)cc1 | > 250 µg/mL | – |
| CCCC(=O)c1ccc(-n2ncc(=O)[nH]c2=O)cc1 | > 60 µg/mL | – |
| Cc1cc(-n2ncc(=O)[nH]c2=O)ccc1Cc1ccccc1 | 30 µg/mL | – |
| Cc1cc(-n2ncc(=O)[nH]c2=O)ccc1C(O)c1ccc(Cl)cc1 (stereo not given) | 15 µg/mL | – |
| O=C(c1ccccc1)c1ccc(-n2ncc(=O)[nH]c2=O)cc1Cl | 15 µg/mL | pH1/2 [4]: 7.04 |
| CC(=O)c1ccc(-n2ncc(=O)[nH]c2=O)cc1 | > 250 µg/mL | pH1/2 [4]: 6.53 |
| Cc1cc(-n2ncc(=O)[nH]c2=O)cc(Cl)c1C(=O)c1ccc(Cl)cc1 | 8 µg/mL | half-life [3]: 21 h |
| O=C(c1ccccc1)c1cc(-n2ncc(=O)[nH]c2=O)ccc1Cl | > 250 µg/mL | – |
| O=c1cnn(-c2ccc(C(O)c3ccc(Cl)cc3)c(Cl)c2)c(=O)[nH]1 (stereo not given) | 2 µg/mL | – |
| CC(=O)c1ccc(-n2ncc(=O)[nH]c2=O)cc1Cl | 125 µg/mL | – |
| CS(=O)(=O)c1ccc(C(=O)c2ccc(-n3ncc(=O)[nH]c3=O)cc2Cl)cc1 | – | minimal effective concentration [6]: > 15 µg/mL |
